Measurements as given in US11026963B2, “Senolytic compositions and uses thereof” (Rubedo Life Sciences, Inc., priority 2018, dated 2021).

Assays:
[1] = tested on: Normal human fibroblasts (IMR90); test: Compound toxicity towards normal proliferative, senescent or quiescent fibroblasts (XTT cell viability assay); assay type: cell-based; settings: IC50 against normal, proliferating cells divided by IC50 versus senescent (doxorubicin-induced) cells, three days treatment
Protocol: Normal human fibroblasts (IMR90) and patient-derived β-galactosidase (GLB1) or α-fucosidase (FUCA1) deficient cells were used to determine change in cell viability after exposure to compound. Cells were cultured with DMEM and 10% heat inactivated FBS under a controlled atmosphere of 5% carbon dioxide and 5% oxygen, […] and confirmed by the absence of senescence associated β-galactosidase (SA-β-Gal) staining and the capacity to re-enter the cell cycle. Senescence was induced by treatment with doxorubicin and confirmed by SA-β-Gal positive staining and the lack of DNA replication. Cells were treated with compound for three days. Cell viability was determined by mitochondrial dehydrogenase activity (XTT assay. Cayman Chemical) at ten concentrations of the tested compound. To generate dose-response curves, data was fitted to a four-parameter Hill function and the IC50 was determined at Y=0.5 viability. The senolytic index (S.I.) for each compound was determined by dividing the IC50 against normal, proliferating cells by the IC50 versus senescent cells. Senolytic index data is shown in Table 1 with compounds having S.I.<1 (−), S.I>1 (+), S.I.>5 (++) and S.I>10 (+++).

[2] = tested on: Mouse embryonic fibroblast cells (MEFs); test: Viability of proliferating or senescent mouse embryonic fibroblasts (DAPI/PI staining); assay type: cell-based; settings: 4 days
Protocol: Mouse embryonic fibroblast cells were incubated with 300 nM doxorubicin for 24 hrs to induce senescence. Cells were washed and after incubation in media for 7 days, senescence was confirmed by staining for SA-β-Gal (Itahana et al., Methods Mol. Biol. 371 (2007) 21-31) and lack of incorporation of 5-ethynyl-2′-deoxyuridine (EdU) (see Yu et al., J. Immunol. Methods 350 (2009) 29-35).
Proliferating or senescent MEFs were treated with increasing concentrations of either FURGal (101) or 5-fluorouridine (FUR) (102) for 4 days. Cells were washed and stained with 4′,6-diamidino-2-phenylindole (DAPI) and propidium iodide (PI) and the fraction of viable cells was assessed from the ratio of PI-positive nuclei over PI-negative nuclei.

C57BL/6 mice = test: Comparative toxicity of FURGal and FUR to C57BL/6 mice; assay type: in vivo; settings: six days after treatment
Protocol: Equimolar doses of (101)(160 mg/kg) and (102) (100 mg/kg) were administered by single dose intraperitoneal injection to 2 groups of mice (N=3 each). Six days after treatment blood cell counts were determined by standard methods (FIG. 2A), bone marrow cells from femur were counted (FIG. 2B) and spleen weights (FIG. 2C) determined to compare the toxicity of the two drugs.

[3] = tested on: senescent C57BL/6 mouse hepatocytes; test: Effect of FURGal on doxorubicin-induced senescent hepatocytes after in vivo administration; settings: doxorubicin 25 mg/kg i.p.; FURGal 140 mg/kg 4 and 6 days later; livers after additional 4 days; FIG. 3C
Protocol: Two groups of C57BL/6 mice (N=5/group) were injected intraperitoneally with doxorubicin (25 mg/kg) to induce hepatocellular senescence. 4 and 6 days later groups were injected with PBS or FURGal (140 mg/kg) (101). A third group of 5 animals served as controls. After an additional 4 days livers were removed and sectioned (30 μm) before staining for SA-β-Gal (6 fields/animal were assessed) (FIGS. 3A and 3B).

[4] = tested on: senescent lung cells in C57BL/6 mice; test: Senolytic effect of compound (119) on doxorubicin-induced senescent lung cells after in vivo administration; design: species or system mouse
Protocol: Four groups of C57BL/6 mice (N=9/group) were injected intravenously with doxorubicin (15 mg/kg) to induce senescence in lung tissue. Five days later groups were injected with vehicle or compound (119) (aka RBO-019) (10, 20 or 40 mg/kg i.v.). After an additional 3 days lungs were removed and the left lobes sectioned before staining for SA-β-Gal as previously described (FIGS. 5A and 5B). […] This senolytic effect was also corroborated by using quantitative PCR to detect mRNA levels of Cdkn2a (p16^INK4a). Expression levels were reported relative to Actb as the reference gene.

[5] = compared with seco product (78); Tietze et al.; cited from earlier work

O=c1[nH]c(=O)n([C@@H]2O[C@H](CO[C@@H]3O[C@H](CO)[C@H](O)[C@H](O)[C@H]3O)[C@@H](O)[C@H]2O)cc1F [(101), 5-fluorouridine-5′-O-β-D-galactopyranoside]
Senolytic Index (S.I.) [1]: +++ (S.I>10 (+++))
toxicity towards senescent MEFs ([2]; doxorubicin-induced senescent MEFs, FIG. 1B): equitoxic
cell viability / toxicity towards proliferating cells ([2]; proliferating MEFs, increasing concentrations (as high as 4 mM), FIG. 1A): completely non-toxic
toxicity towards platelets, neutrophils, lymphocytes and bone marrow cells (C57BL/6 mice; equimolar single i.p. dose: (101) 160 mg/kg, (102) 100 mg/kg, FIG. 2A, 2B): negligible toxicity
effects on spleen weight (C57BL/6 mice; single i.p. dose 160 mg/kg, in comparison to FUR (102) 100 mg/kg, FIG. 2C): minimal effects
senescent hepatocytes (SA-β-Gal staining of liver sections) [3]: numerical trend for a reduction

CC(=O)O[C@H]1[C@H](OC(C)=O)[C@H](ONC(=O)/C=C/c2ccc(CNCCc3c(C)[nH]c4ccccc34)cc2)O[C@@H](C)[C@H]1OC(C)=O [(119), (2S,3R,4R,5S,6S)-2-Methyl-6-(((E)-3-(4-(((2-(2-methyl-1H-indol-3-yl)ethyl)amino)methyl)phenyl)acrylamido)oxy)tetrahydro-2H-pyran-3,4,5-triyl triacetate]
Senolytic Index (S.I.) [1]: +++ (S.I>10 (+++))
SA-β-Gal staining in lung sections ([4]; doxorubicin 15 mg/kg i.v., 10, 20 or 40 mg/kg i.v. five days later, lungs after additional 3 days, FIG. 5C): dose-dependent reduction
Cdkn2a gene expression in lung ([4]; quantitative PCR, relative to Actb, 10, 20 or 40 mg/kg i.v., FIG. 5D): dose-dependent reduction

C[C@@H](Cl)[C@@H]1CN(C(=O)c2cc3cc(OCCN(C)C)ccc3[nH]2)c2cc(O[C@@H]3O[C@H](CO)[C@H](O)[C@H](O)[C@H]3O)c3ccccc3c21 [Compound (77)]
fold less cytotoxic than hydrolyzed seco product (78) [5]: greater than 4000 fold
